Source: patent US20260193180A1, “AUTOPHAGY INDUCING COMPOUNDS AND USES THEREOF” (SAMSARA THERAPEUTICS INC., priority 2022, published 2026)
Structures can show the parent of a compound that is named as a salt. Where two headings read alike, the source gives them in different places.

Key:
[1] = tested on: C57BL/6JRj mice injured by intra-nigral injections of alpha-synuclein and CBE; test: Mouse model of Parkinson's disease (intra-nigral alpha-synuclein protofibrils plus CBE); type: in vivo; details: 30 mg/kg per os on the first day, then 10 mg/kg per os once a day
Text: This model (run by Neuro-Sys SAS, France) uses C57BL/6JRj mice injured by intra-nigral injections of a solution containing protofibrils of alpha-synuclein (α-syn, precisely quantified by automatic Western Blot) and combined with pharmacological inhibition of GBA by conduritol B epoxide (CBE), in aged mice. The model mimics the main pathologies of PD: loss of dopaminergic neurons in the substantia nigra, neuroinflammation, deficits in motor coordination and synucleinopathy (α-syn aggregation). Any substance with positive effects in this model may be useful as a new therapeutic agent for the treatment or prevention of PD.
• Type of animal: C57BL/6JRj (Male) • Age: 18 months old • Supplier: Janvier Labs • Animal number: 10 mice per group • Acclimation and clinical signs: Animals arrived on site 7 days (one week) before the experiment to allow optimal acclimation.
Overview: CBE was administered along with the test compounds, starting on the day of the stereotaxic injections of the α-syn oligomer preparation.
Test compounds at specific concentrations (see below) were administered per os (gavage or drinking water). • Test compound treatment: The test compounds were solubilized (vehicle=water), aliquoted and stored at −20° C. Aliquots were thawed overnight at 4° C. and given once a day. Treatment started on the day of the stereotaxic injections of α-syn preparation (Day 0). Treatment was administrated until the last day of the experiment (Day 28; =day of dissection). • CBE dose and administration: 50 mg/kg, Intraperitoneal (i.p.), twice a day. • CBE treatment: Administration of CBE (vehicle=saline [NaCl 0.9%] started on the day of the stereotaxic injections of α-syn preparation (Day 0). Treatment was administrated until the last day of the experiment (Day 28; =day of dissection), • Untreated control: vehicle (saline; i.p.) administered twice a day, • Stereotaxic injections of α-syn oligomers: Human α-syn peptide (stock at 69 μM in water at −20° C.) was reconstituted at 50 μM in NaCl, 0.9% (final concentration). All mice in compound treated groups were subjected to surgery and received 2.5 μL of α-syn solution. Mice were anesthetized by isoflurane (4%, for induction), in an induction chamber coupled with a vaporizer and to an oxygen concentrator. Mice were placed on the stereotaxic frame. Anesthesia was maintained by isoflurane (2%) with a face mask coupled to the isoflurane vaporizer and oxygen concentrator machine. The skull was exposed and holes were drilled. The α-syn preparation was bilaterally injected into the SNpc, at the following coordinates: A-P, −0.3 mm; M-L, +0.12 mm; D-V, −0.45 mm. Depth of anesthesia and rectal temperature were verified every 5 minutes. After surgery, mice were allowed to recover before being placed back in the cage.
• i) Body mass • ii) Assessment of motor coordination: bar test and grid walking test • iii) Dopaminergic Tyrosine hydroxylase (TH)-positive neuron survival in the substantia nigra pars compacta (SNpc), i.e. a measure of the number of TH neurons in the SNpc • iv) α-syn area in TH positive neurons (a measure of the degree of aggregation of α-syn in TH positive neurons, in the SNpc)
• Overall: For overall evaluation and body mass, mice were observed daily, and body mass was monitored prior to drug administration. • Assessment of motor coordination: bar test.
In the third week (Week 3) post-surgery, motor coordination of the mice was assessed with the bar test. The principle of the test is based on the capacity of the mice to cross a horizontal bar connected to a platform (18 mm of diameter, 60 cm long). The test requires good coordination between front and hindlimbs, and good balance. Mice are placed at one extremity of the bar and need to reach a platform located at the other side of the bar. Motor coordination was studied after two training sessions, one and two days before the test. Three sessions were recorded by a video camera system. […]

[2] = tested on: Human osteosarcoma U2OS cells; test: Acidic vesicle formation (lysosome/autolysosome staining, LysoView 633 / LysoTracker Deep Red), stimulation of autophagy; type: cell-based; details: 10 μM, 24 hours, read-out: increase in acidic vesicle formation over the DMSO-treated control
Description: Lysosomes play a fundamental role in the autophagic pathway by fusing with autophagosomes and creating ‘autolysosomes’ in order to digest their contents. Stimulation of lysosome and autolysosome formation by a compound is indicative of a stimulation of autophagy. The ability of compounds to stimulate lysosome and autolysosome formation, and thus autophagy, in live cells was assessed via fluorescent microscopy using various fluorescent stains for labelling and tracking acidic organelles (including lysosomes and autolysosomes) such as: LysoView™ 650 (70059 and 70059-T, Biotium), LysoView™633 (70058 and 70058-T, Biotium) and LysoTracker™ Deep Red (L12492, ThermoFisher Scientific). The cellular phenotype was quantitatively assessed for the induction of acidic vesicle formation and compared to a non-treated control, thus providing a measure of the ability of the compound under investigation to stimulate autophagy.
Representative procedure using LysoView™633 dye or LysoTracker™ Deep Red dye: Human osteosarcoma U2OS cells (40,000 cells/well) were seeded in a 24 well glass bottom plate (Sensoplate, Greiner Bio-One) and were incubated overnight in a humidified atmosphere at 37° C. and 5% CO2. Cells were grown in DMEM (Gibco) supplemented with 10% Fetal Bovine Serum (FBS) and 100 units/ml penicillin and 100 μg/ml streptomycin (Invitrogen). After the attachment period, cells were treated with different compounds of interest (at various concentrations in DMSO) or DMSO (non-treated control) in cell culture medium and were incubated for 24 hours. Compound-containing medium was removed and cells were incubated with pre-warmed cell culture medium containing 1× LysoView™ 633 (70058 and 70058-T, Biotium) or 50 nM LysoTracker™ Deep Red (L12492, ThermoFisher Scientific) for 45 minutes at 37° C. Finally, cell nuclei were stained for 10 minutes using Hoechst 33342 (1 μg/mL) and then the medium was replaced with fresh medium. The 24 well plate was then fitted into a heated stage on the microscope and cells maintained at 37° C. Images were captured using appropriate filter set for Cy5 and DAPI detection with the EVOS M7000 Microscope (ThermoFisher Scientific). The cellular phenotype was visually assessed for the induction of acidic vesicle formation relative to the non-treated control; multiple images were acquired and analysed using ImageJ or Cell Profiler.

[3] = tested on: U2OS cell line stabling expressing RFP-eGFP-hLC3b; test: Tandem reporter assay (autophagic flux), RFP-only puncta (autolysosomes); type: cell-based; details: Homo sapiens, read-out: Activity (Autolysosome % DMSO activity)
Description: Selected compounds of this invention were also assessed for their ability to stimulate autophagy using a U2OS cell line stabling expressing RFP-eGFP-hLC3b (a tandem reporter cell line). This assay is further described in WO 2023/089074.
LC3b is a protein found in the membrane of autophagosomes which has been used to generate genetic reporters of autophagy in cells. In these systems a tandem fusion of LC3b is engineered with two fluorescent proteins of different wavelengths: one which is acid sensitive (for example eGFP, which fluoresces green) and the other which is acid insensitive (for example RFP, which fluoresces red). Cells expressing RFP-eGFP-hLC3b can be examined using fluorescent microscopy: the autophagosomes present will fluoresce in both channels (either yellow in an overlay of both channels or puncta that are present in both the individual red and green channels) but the autolysosomes present will fluoresce in the RFP (red) channel only. Using a fluorescent microscope, the number of autophagosomes and autolysosomes can be counted, allowing for the monitoring of both the induction of autophagy (total puncta count) and the rate of autophagic flux (ratio of red-only to red-and-green puncta). The influence of small molecules on autophagy induction and flux can be assessed using this system by comparison to a non-treated control.
Representative Procedure: Human osteosarcoma U20S cells stably expressing RFP-eGFP-hLC3b were seeded (10,000 cells/well) into a 96-well glass-bottom plate (Cell Carrier Ultra, Perkin Elmer) in DMEM Glutamax media (Gibco) supplemented with 10% Fetal Bovine Serum (FBS) and antibiotics (100 μg/ml penicillin, 100 μg/ml streptomycin, Invitrogen), then incubated overnight in a humified atmosphere at 37° C. and 5% CO2. The cells were then treated with the compounds of interest, dissolved in DMSO, in a duplicated 5- or 10-point dose-response. 8 wells were treated with an equivalent volume of DMSO, 4 with 0.3 μM torin-1 as a positive control (MCE) and 4 wells with 0.4 μM torin-1 plus 0.2 μM bafilomycin (MCE) as a control for flux inhibition. The cells were returned to the incubator and the treatment continued for 24 hours. After treatment, the media was aspirated off and the cells fixed with a solution of 4% formaldehyde+1% glutaraldehyde (Sigma) in dPBS (plus magnesium and calcium, Gibco). Fixation was allowed to proceed for 15 minutes at room temperature then the fixative solution discarded and replaced with PBS (Gibco) plus Hoescht 33342 (1 μg/ml, Sigma). After 30 minutes the plates were imaged on an Opera Phenix confocal microscope (Perkin-Elmer) using a 40× water objective, collecting using DAPI, mCherry and GFP channels. Cells were detected based upon the staining of their nuclei with DAPI using the Harmony image analysis software (Perkin-Elmer) and the number of autophagosomes (GFP and RFP puncta) and autolysosomes (RFP only puncta) per cell were counted using the spot picking function within the software.

Row | SMILES | activity at 1.25 µM ([3]; average of two runs) [%] | also measured
1 | CCOc1ccc(CN2CC[C@H](CN)C2)cc1Cl.Cl [Compound 23, (R)-(1-(3-chloro-4-ethoxybenzyl)pyrrolidin-3-yl) methanamine hydrochloride] |  | bar test: decrease in the mean time required to cross the bar compared to the α-syn/CBE injured group ([1]; week 3): 11%; bar test: reduction in the mean number of steps required to cross the bar compared to the α-syn/CBE injured group ([1]; week 3): 3%; bar test: reduction in the number of misplaced steps (failed strides) compared to the α-syn/CBE injured group ([1]; week 3): 39%; decrease in the aggregation of α-syn in TH neurons (α-syn area) compared to the α-syn/CBE injured group ([1]; week 4): 16%; grid walking test: increase in the total distance travelled during the test ([1]; week 4): 14%; grid walking test: reduction in the mean number of failures per meter (number of missed steps) ([1]; week 4): 14%; increase in the number of dopaminergic TH positive neurons in the SNpc compared to the α-syn/CBE injured group ([1]; week 4): 31%; activation at 10 µM [2]: ≥ 25%
2 | CCOc1ccc(CCN2CC[C@@H](N)C2)cc1F [Compound 88, (R)-1-[2-(4-ethoxy-3-fluorophenyl)ethyl]-3-pyrrolidinylamine hydrochloride] | 150 to 200 | 
3 | COCCOc1ccc(CCN2CCC[C@@H](N)C2)cc1Cl [Compound 89, (R)-1-{2-[3-chloro-4-(2-methoxyethoxy)phenyl]ethyl}-3-piperidylamine hydrochloride] | 150 to 200 | 
4 | CCOc1c(Cl)cc(CN2CCC(N)CC2)cc1Cl [Compound 90, 1-[(3,5-Dichloro-4-ethoxyphenyl)methyl]-4-piperidylamine hydrochloride] | 200 to 250 | 
5 | NC1CCN(CCc2cc(Cl)c(OCC3CC3)c(Cl)c2)CC1 [Compound 91, 1-{2-[3,5-Dichloro-4-(cyclopropylmethoxy)phenyl]ethyl}-4-piperidylamine hydrochloride] |  | activity at 1.25 µM ([3]; one run): 150 to 200%
6 | CCOc1ccc(CN2CCC[C@H](N)C2)cc1Cl [Compound 92, (S)-1-[(3-chloro-4-ethoxyphenyl)methyl]-3-piperidylamine hydrochloride] |  | activity at 0.5 µM ([3]; 0.5 μM, average of two runs): 150 to 200%
7 | CCOc1ccc(CN2CCC[C@@H](N)C2)cc1Cl [Compound 93, (R)-1-[(3-chloro-4-ethoxyphenyl)methyl]-3-piperidylamine hydrochloride] | 150 to 200 | 
8 | COCCOc1c(Cl)cc(CN2CCC(N)CC2)cc1Cl [Compound 94, 1-{[3,5-dichloro-4-(2-methoxyethoxy)phenyl]methyl}-4-piperidylamine hydrochloride] | 150 to 200 | 
9 | COCCOc1ccc(CN2CCC(N)CC2)cc1Cl [Compound 95, 1-{[3-chloro-4-(2-methoxyethoxy)phenyl]methyl}-4-piperidylamine hydrochloride] | 200 to 250 | 
10 | N[C@H]1CCCN(Cc2cc(Cl)c(OCC3CC3)c(Cl)c2)C1 [Compound 96, (S)-1-{[3,5-dichloro-4-(cyclopropylmethoxy)phenyl]methyl}-3-piperidylamine hydrochloride] | 200 to 250 | 
11 | N[C@@H]1CCCN(Cc2cc(Cl)c(OCC3CC3)c(Cl)c2)C1 [Compound 97, (R)-1-{[3,5-dichloro-4-(cyclopropylmethoxy)phenyl]methyl}-3-piperidylamine hydrochloride] | 150 to 200 | 
12 | NC1CCN(Cc2cc(Cl)c(OCC3CC3)c(Cl)c2)CC1 [Compound 98, 1-{[3,5-dichloro-4-(cyclopropylmethoxy)phenyl]methyl}-4-piperidylamine hydrochloride] | 150 to 200 | 
13 | N[C@@H]1CCN(CCc2ccc(OCC3CC3)c(Cl)c2)C1 [Compound 99, (R)-1-{2-[3-chloro-4-(cyclopropylmethoxy)phenyl]ethyl}-3-pyrrolidinylamine hydrochloride] | 150 to 200 | 
14 | N[C@H]1CCN(CCc2ccc(OCC3CC3)c(Cl)c2)C1 [Compound 100, (S)-1-{2-[3-chloro-4-(cyclopropylmethoxy)phenyl]ethyl}-3-pyrrolidinylamine hydrochloride] | 150 to 200 | 
